In patent US9566265B2, “Carbazole compounds and therapeutic uses of the compounds” (Incuron, LLC, priority 2008, dated 2017):

Tested on: bacteria
Assay: antibacterial cytotoxicity assay, comparison with ampicillin control
Type: cell-based
Description: In particular, the effect of carbazole compounds of the present invention on gram positive (Bacillus subtilis) and gram negative (DH5-α) bacteria was determined by the following procedure, and is summarized in FIGS. 13A and 13B.
Each library chemical to be tested requires 2 rows of a 96-well plate, thus 4 chemicals (e.g. W, X, Y, Z) can be tested in one plate simultaneously. In addition to test chemicals, each plate should include positive and negative controls. As positive control, ampicillin is used at 100 μg/ml. As a negative control, DMSO is used in an amount equal to the highest volume of test compound used (˜0.25% DMSO for 50 μM).
Besides a positive control added in one concentration on each plate, the positive control of ampicillin is added to each assay run in a full concentration range (3 fold dilutions) to ensure proper and robust assay performance (estimated by comparison of dose response curves among runs).
The average OD600 nm of the test compound solutions are compared to that of the DMSO control by dividing the average OD600 nm of the test solution by that of the DMSO control and multiplying by 100 to produce the % DMSO control (i.e. % cytotoxicity). The % DMSO control is plotted vs compound concentration to generate sigmoid shaped curves. After three runs are complete, the raw data for all three runs is used for IC50 calculations.

CCN(CC)CCn1c2ccc3c(c2c2c4c(ccc21)C(=O)CC4)CCC3=O [Example 15]
effectiveness against bacteria compared with the ampicillin control: more effective
